Laboratory results from patent US9427482B2, “Agents for clearing biomolecules from circulation” (KONINKLIJKE PHILIPS N.V., priority 2010, dated 2016).

Tested on: LS174T xenografts
Assay: Biodistribution, blood kinetics and excretion of CC49-TCO-18 pretargeted ^177Lu-tetrazine 15 (Example 12)
Assay type: in vivo, mice
Experimental: Groups of 4 mice bearing LS174T xenografts (70-100 mm^3) were injected either with directly labeled ^177Lu-DOTA-CC49 (100 μg/100 μl, ca. 0.5 MBq per mouse) or with CC49-TCO-18 pretargeted ^177Lu-tetrazine 15 (100 μg/100 μl CC49-TCO-18 followed by two 160 μg/100 μl doses of galactose-MSA-tetrazine 12 at 30 and 48 hours and by 8.52 μg/80 μl ^177Lu-tetrazine 15, 0.8-1.2 MBq per mouse, containing 100 μg gentisic acid). One group of mice injected with ^177Lu-DOTA-CC49 and one injected with pretargeted ^177Lu-tetrazine were used to evaluate the early blood distribution of the two tracers by withdrawing blood samples from the vena saphena at selected time points (2, 30, and 60 min for ^177Lu-DOTA-CC49 and 2, 5, 10, 20, 30, and 45 min for pretargeted ^177Lu-tetrazine) (FIG. 15). These two groups of mice were then sacrificed 3 h and 1 h after the injection of ^177Lu-DOTA-CC49 and ^177Lu-tetrazine, respectively. All other groups of mice were sacrificed at various time points up to 7 days post tracer injection. After sacrifice, blood was withdrawn by heart puncture and selected organs and tissues were harvested and blotted dry. The blood samples and tissues were weighed, added with 1 mL PBS and the radioactivity was counted in a gamma counter along with standards to determine the % ID/g and % ID (Tables 7-8). Two additional groups of tumor bearing mice were used for excretion profiles (FIG. 16). The mice injected with ^177Lu-DOTA-CC49 were housed in filtered caging units and at various time points the bedding was counted in a gamma counter along with standards. The other group of mice was injected with ^177Lu-tetrazine at higher specific activity (ca. 12 MBq/8.52 μg tetrazine per mouse) and whole body clearance was monitored by measuring the animals in a dose calibrator at various time points.

SMILES: O=C([O-])CN1CCN(CC(=O)[O-])CCN(CC(=O)NCCOCCOCCOCCOCCOCCOCCOCCOCCOCCOCCOCCNC(=O)CCCC(=O)Nc2ccc(-c3nnc(-c4ccccn4)nn3)nc2)CCN(CC(=O)[O-])CC1.[177Lu+3] [^177Lu-tetrazine]
- biodistribution bladder (1 hours): 2.21 ± 1.15 % ID/g
- biodistribution blood (1 hours): 0.42 ± 0.20 % ID/g
- biodistribution bone (1 hours): 1.08 ± 1.34 % ID/g
- biodistribution brain (1 hours): 0.03 ± 0.03 % ID/g
- biodistribution heart (1 hours): 0.16 ± 0.05 % ID/g
- biodistribution kidney (1 hours): 2.38 ± 0.55 % ID/g
- biodistribution lg. intestine (1 hours): 0.38 ± 0.11 % ID
- biodistribution liver (1 hours): 0.29 ± 0.08 % ID/g
- biodistribution lung (1 hours): 0.54 ± 0.15 % ID/g
- biodistribution muscle (1 hours): 0.23 ± 0.21 % ID/g
- biodistribution ovaries (1 hours): 0.57 ± 0.37 % ID/g
- biodistribution sm. intestine (1 hours): 0.16 ± 0.03 % ID
- biodistribution spleen (1 hours): 0.17 ± 0.04 % ID/g
- biodistribution stomach (1 hours): 0.10 ± 0.10 % ID
- biodistribution tumor (1 hours): 4.71 ± 1.13 % ID/g
- biodistribution uterus (1 hours): 2.80 ± 1.64 % ID/g
- biodistribution bladder (3 hours): 0.85 ± 0.64 % ID/g
- biodistribution blood (3 hours): 0.03 ± 0.00 % ID/g
- biodistribution bone (3 hours): 0.17 ± 0.19 % ID/g
- biodistribution brain (3 hours): 0.00 ± 0.00 % ID/g
- biodistribution heart (3 hours): 0.04 ± 0.00 % ID/g
- biodistribution kidney (3 hours): 1.58 ± 0.14 % ID/g
- biodistribution lg. intestine (3 hours): 0.15 ± 0.04 % ID
- biodistribution liver (3 hours): 0.18 ± 0.02 % ID/g
- biodistribution lung (3 hours): 0.21 ± 0.03 % ID/g
- biodistribution muscle (3 hours): 0.05 ± 0.03 % ID/g
- biodistribution ovaries (3 hours): 0.21 ± 0.19 % ID/g
- biodistribution sm. intestine (3 hours): 0.22 ± 0.07 % ID
- biodistribution spleen (3 hours): 0.09 ± 0.01 % ID/g
- biodistribution stomach (3 hours): 0.02 ± 0.01 % ID
- biodistribution tumor (3 hours): 5.38 ± 0.48 % ID/g
- biodistribution uterus (3 hours): 0.35 ± 0.42 % ID/g
- injected activity excreted in the urine (3 hours post injection): over 95%
- tumor-to-blood ratio (3 hours post injection): ~200
- biodistribution bladder (6 hours): 0.20 ± 0.08 % ID/g
- biodistribution blood (6 hours): 0.02 ± 0.00 % ID/g
- biodistribution bone (6 hours): 0.03 ± 0.00 % ID/g
- biodistribution brain (6 hours): 0.00 ± 0.00 % ID/g
- biodistribution heart (6 hours): 0.03 ± 0.01 % ID/g
- biodistribution kidney (6 hours): 1.09 ± 0.18 % ID/g
- biodistribution lg. intestine (6 hours): 0.05 ± 0.01 % ID
- biodistribution liver (6 hours): 0.15 ± 0.01 % ID/g
- biodistribution lung (6 hours): 0.11 ± 0.02 % ID/g
- biodistribution muscle (6 hours): 0.02 ± 0.00 % ID/g
- biodistribution ovaries (6 hours): 0.09 ± 0.02 % ID/g
- biodistribution sm. intestine (6 hours): 0.38 ± 0.26 % ID
- biodistribution spleen (6 hours): 0.07 ± 0.01 % ID/g
- biodistribution stomach (6 hours): 0.01 ± 0.01 % ID
- biodistribution tumor (6 hours): 4.53 ± 1.69 % ID/g
- biodistribution uterus (6 hours): 0.10 ± 0.04 % ID/g
- biodistribution bladder (1 day): 0.20 ± 0.06 % ID/g
- biodistribution blood (1 day): 0.01 ± 0.00 % ID/g
- biodistribution bone (1 day): 0.03 ± 0.01 % ID/g
- biodistribution brain (1 day): 0.00 ± 0.00 % ID/g
- biodistribution heart (1 day): 0.03 ± 0.00 % ID/g
- biodistribution kidney (1 day): 1.01 ± 0.13 % ID/g
- biodistribution lg. intestine (1 day): 0.06 ± 0.06 % ID
- biodistribution liver (1 day): 0.13 ± 0.02 % ID/g
- biodistribution lung (1 day): 0.10 ± 0.01 % ID/g
- biodistribution muscle (1 day): 0.02 ± 0.00 % ID/g
- biodistribution ovaries (1 day): 0.08 ± 0.03 % ID/g
- biodistribution sm. intestine (1 day): 0.09 ± 0.05 % ID
- biodistribution spleen (1 day): 0.07 ± 0.01 % ID/g
- biodistribution stomach (1 day): 0.04 ± 0.05 % ID
- biodistribution tumor (1 day): 3.83 ± 0.95 % ID/g
- biodistribution uterus (1 day): 0.09 ± 0.02 % ID/g
- biodistribution bladder (2 days): 0.12 ± 0.07 % ID/g
- biodistribution blood (2 days): 0.01 ± 0.00 % ID/g
- biodistribution bone (2 days): 0.02 ± 0.00 % ID/g
- biodistribution brain (2 days): 0.00 ± 0.00 % ID/g
- biodistribution heart (2 days): 0.03 ± 0.01 % ID/g
- biodistribution kidney (2 days): 0.49 ± 0.07 % ID/g
- biodistribution lg. intestine (2 days): 0.07 ± 0.08 % ID
- biodistribution liver (2 days): 0.11 ± 0.02 % ID/g
- biodistribution lung (2 days): 0.08 ± 0.03 % ID/g
- biodistribution muscle (2 days): 0.02 ± 0.01 % ID/g
- biodistribution ovaries (2 days): 0.10 ± 0.06 % ID/g
- biodistribution sm. intestine (2 days): 0.06 ± 0.06 % ID
- biodistribution spleen (2 days): 0.07 ± 0.01 % ID/g
- biodistribution stomach (2 days): 0.01 ± 0.01 % ID
- biodistribution tumor (2 days): 3.15 ± 1.32 % ID/g
- biodistribution uterus (2 days): 0.12 ± 0.09 % ID/g
- biodistribution bladder (4 days): 0.13 ± 0.04 % ID/g
- biodistribution blood (4 days): 0.00 ± 0.00 % ID/g
- biodistribution bone (4 days): 0.02 ± 0.01 % ID/g
- biodistribution brain (4 days): 0.00 ± 0.00 % ID/g
- biodistribution heart (4 days): 0.02 ± 0.00 % ID/g
- biodistribution kidney (4 days): 0.34 ± 0.02 % ID/g
- biodistribution lg. intestine (4 days): 0.03 ± 0.02 % ID
- biodistribution liver (4 days): 0.14 ± 0.02 % ID/g
- biodistribution lung (4 days): 0.06 ± 0.01 % ID/g
- biodistribution muscle (4 days): 0.01 ± 0.00 % ID/g
- biodistribution ovaries (4 days): 0.09 ± 0.02 % ID/g
- biodistribution sm. intestine (4 days): 0.04 ± 0.04 % ID
- biodistribution spleen (4 days): 0.07 ± 0.01 % ID/g
- biodistribution stomach (4 days): 0.01 ± 0.00 % ID
- biodistribution tumor (4 days): 2.06 ± 0.84 % ID/g
- biodistribution uterus (4 days): 0.10 ± 0.07 % ID/g
- biodistribution bladder (7 days): 0.15 ± 0.02 % ID/g
- biodistribution blood (7 days): 0.00 ± 0.00 % ID/g
- biodistribution bone (7 days): 0.01 ± 0.00 % ID/g
- biodistribution brain (7 days): 0.00 ± 0.00 % ID/g
- biodistribution heart (7 days): 0.01 ± 0.00 % ID/g
- biodistribution kidney (7 days): 0.19 ± 0.04 % ID/g
- biodistribution lg. intestine (7 days): 0.02 ± 0.01 % ID
- biodistribution liver (7 days): 0.13 ± 0.03 % ID/g
- biodistribution lung (7 days): 0.04 ± 0.01 % ID/g
- biodistribution muscle (7 days): 0.01 ± 0.00 % ID/g
- biodistribution ovaries (7 days): 0.08 ± 0.04 % ID/g
- biodistribution sm. intestine (7 days): 0.07 ± 0.04 % ID
- biodistribution spleen (7 days): 0.08 ± 0.01 % ID/g
- biodistribution stomach (7 days): 0.01 ± 0.00 % ID
- biodistribution tumor (7 days): 1.02 ± 0.36 % ID/g
- biodistribution uterus (7 days): 0.21 ± 0.16 % ID/g
- T1/2, elimination from blood (CC49-TCO pretargeted mice): 11.2 min
- tumor-to-blood ratio (by the end of the experiment (7 days)): over 500
